In general, Kd refers to a measure of binding affinity in units of concentration. Read a low Kd as a tighter complex.

Here are results for three molecules from article PMC3013012 (The Journal of Biological Chemistry, 2010).

Experiment [1] addresses T1, human Cbx7 chromodomain (Homo sapiens, UniProt O95931).
T1 sequence (O95931 8-62): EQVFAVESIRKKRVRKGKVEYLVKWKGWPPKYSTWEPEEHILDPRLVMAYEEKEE
The experiment is described as follows: Fluorescence polarization peptide binding.

In experiment [2] the target is T2, human Cbx8 chromodomain (Homo sapiens, UniProt Q9HC52).
T2 sequence (Q9HC52 8-61): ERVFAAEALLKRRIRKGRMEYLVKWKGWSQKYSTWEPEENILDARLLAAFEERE
The experiment is described as follows: Fluorescence polarization peptide binding. (In general: Polarisation of emitted light reports the rotation of a fluorescent probe.)

Each structure is given as a SMILES string. Square brackets hold non-standard residues; d marks the D form. Peptide text beside a SMILES is read from it. Lys(Me3) = C[N+](C)(C)CCCC[C@H](N)C(=O)O; Lys(Me2) = CN(C)CCCC[C@H](N)C(=O)O

Turning to `CC[C@H](C)[C@H](NC(=O)CNC(=O)[C@@H](N)Cc1c[nH]cn1)C(=O)N[C@@H](C)C(=O)N[C@H](C(=O)N[C@@H](CCCC[N+](C)(C)C)C(=O)N[C@@H](CO)C(=O)N[C@H](C(=O)N[C@@H](CC(N)=O)C(=O)O)[C@@H](C)O)[C@@H](C)CC` [IAIK(1178)S] (H-HGIAI[Lys(Me3)]STN-OH), the Kd in experiment [1] turned out to be 5 ± 0.8 µM.

For `CC[C@H](C)[C@H](NC(=O)CNC(=O)[C@H](Cc1c[nH]cn1)NC(=O)[C@@H](NC(=O)[C@H](CO)NC(=O)[C@H](CCCCN(C)C)NC(=O)[C@H](CC(C)C)NC(=O)[C@H](C)NC(=O)[C@H](Cc1ccccc1)NC(=O)CNC(=O)[C@H](CCCNC(=N)N)NC(=O)[C@@H](NC(=O)[C@H](CO)NC(=O)[C@H](CCCCN(C)C)NC(=O)[C@@H](NC(=O)[C@H](C)NC(=O)[C@@H](NC(=O)[C@H](CCC(N)=O)NC(=O)[C@@H](N)CCCNC(=N)N)C(C)C)C(C)C)[C@@H](C)O)[C@@H](C)O)C(=O)N[C@@H](C)C(=O)N[C@H](C(=O)N[C@@H](CCCCN(C)C)C(=O)N[C@@H](CO)C(=O)N[C@H](C(=O)N[C@@H](CC(N)=O)C(=O)O)[C@@H](C)O)[C@@H](C)CC` [Kme2(1162,1170,1178)] (H-RQVAV[Lys(Me2)]STRGFAL[Lys(Me2)]STHGIAI[Lys(Me2)]STN-OH), the Kd is 15 ± 0.5 µM in experiment [1] and 180 ± 80 µM in experiment [2].

Consider `CC[C@H](C)[C@H](NC(=O)CNC(=O)[C@H](Cc1c[nH]cn1)NC(=O)[C@@H](NC(=O)[C@H](CO)NC(=O)[C@H](CCCC[N+](C)(C)C)NC(=O)[C@H](CC(C)C)NC(=O)[C@H](C)NC(=O)[C@H](Cc1ccccc1)NC(=O)CNC(=O)[C@H](CCCNC(=N)N)NC(=O)[C@@H](NC(=O)[C@H](CO)NC(=O)[C@H](CCCC[N+](C)(C)C)NC(=O)[C@@H](NC(=O)[C@H](C)NC(=O)[C@@H](NC(=O)[C@H](CCC(N)=O)NC(=O)[C@@H](N)CCCNC(=N)N)C(C)C)C(C)C)[C@@H](C)O)[C@@H](C)O)C(=O)N[C@@H](C)C(=O)N[C@H](C(=O)N[C@@H](CCCC[N+](C)(C)C)C(=O)N[C@@H](CO)C(=O)N[C@H](C(=O)N[C@@H](CC(N)=O)C(=O)O)[C@@H](C)O)[C@@H](C)CC` [Kme3(1162,1170,1178)] (H-RQVAV[Lys(Me3)]STRGFAL[Lys(Me3)]STHGIAI[Lys(Me3)]STN-OH), for which the Kd in experiment [1] stood at 1.2 ± 0.2 µM; in experiment [2], 6 ± 2 µM.
